# What was measured:
# [1] = biological target: dopamine transporter (DAT) (Rattus norvegicus, UniProt P23977); experiment: Dopamine reuptake ([^3H]dopamine uptake) inhibition in rat brain synaptosomes; conditions: for IC50: DA Uptake EC50 (nM ± SD), rat caudate synaptosomes, 5 nM [^3H]dopamine, 15 min, 25° C., three experiments pooled; for Emax: read-out: DA Uptake Emax (% I ± SD)
# dopamine transporter (DAT), sequence (P23977 whole entry): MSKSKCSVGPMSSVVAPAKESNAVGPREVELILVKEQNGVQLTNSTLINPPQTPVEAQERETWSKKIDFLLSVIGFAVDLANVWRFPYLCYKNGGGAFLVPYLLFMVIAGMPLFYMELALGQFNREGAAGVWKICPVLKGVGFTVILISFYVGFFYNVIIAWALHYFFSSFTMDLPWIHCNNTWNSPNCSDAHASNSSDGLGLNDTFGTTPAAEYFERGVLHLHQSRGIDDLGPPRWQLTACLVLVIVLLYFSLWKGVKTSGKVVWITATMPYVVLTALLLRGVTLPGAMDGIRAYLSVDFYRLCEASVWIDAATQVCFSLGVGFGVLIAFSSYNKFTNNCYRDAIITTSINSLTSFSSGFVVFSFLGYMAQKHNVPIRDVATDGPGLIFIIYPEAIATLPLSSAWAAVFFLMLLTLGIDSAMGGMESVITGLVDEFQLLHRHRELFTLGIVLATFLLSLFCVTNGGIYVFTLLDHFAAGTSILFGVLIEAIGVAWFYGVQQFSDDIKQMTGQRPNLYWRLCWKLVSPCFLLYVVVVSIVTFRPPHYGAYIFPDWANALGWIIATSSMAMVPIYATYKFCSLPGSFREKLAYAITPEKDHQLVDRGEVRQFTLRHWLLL
Structure (SMILES),melting point,IC50 [1],Emax [1]
"c1ccc(C(CNc2nc(-c3ccc4ncnn4c3)nc3ccccc23)c2cccnc2)cc1 (stereo not shown) [compound 132, 2-([1,2,4]Triazolo[1,5-a]pyridin-6-yl)-N-(2-phenyl-2-(pyridin-3-yl)ethyl)quinazolin-4-amine]",> 250 °C,103 ± 26 nM,55 ± 3%
"c1ccc(C(CNc2nc(-c3cccc4cccnc34)nc3ccccc23)c2ccccc2)cc1 [compound 141, N-(2,2-Diphenylethyl)-2-(Quinolin-8-yl)Quinazolin-4-Amine]",102 to 104 °C,45 ± 7 nM,98 ± 3%
"Cc1nc2ccc(-c3nc(NCC(c4ccccc4)c4ccccc4)c4ccccc4n3)cn2c1C [compound 91, 2-(2,3-Dimethylimidazo[1,2-A]Pyridin-6-yl)-N-(2,2-Diphenylethyl)Quinazolin-4-Amine]",232 °C,25 ± 3 nM,72 ± 2%
"c1ccc(C(CNc2nc(N3Cc4ccccc4C3)nc3ccccc23)c2ccccc2)cc1 [compound 189, N-(2,2-Diphenylethyl)-2-(Isoindolin-2-yl)Quinazolin-4-Amine]",293 to 295 °C,24 ± 7 nM,83 ± 4%
"c1ccc(C(CNc2nc(-c3ccc4nccnc4c3)nc3ccccc23)c2ccccc2)cc1 [compound 56, N-(2,2-Diphenylethyl)-2-(Quinoxalin-6-yl)Quinazolin-4-Amine]",198 °C,89 ± 13 nM,70 ± 2%
"c1ccc(C(CNc2nc(-c3ccc4scnc4c3)nc3ccccc23)c2ccccc2)cc1 [compound 145, 2-(Benzo[D]Thiazol-5-yl)-N-(2,2-Diphenylethyl)Quinazolin-4-amine]",224 to 226 °C,533 ± 89 nM,67 ± 2%
"c1ccc(C(CNc2nc(-c3cc4ccccc4[nH]3)nc3ccccc23)c2ccccc2)cc1 [compound 42, N-(2,2-Diphenylethyl)-2-(1H-Indol-2-yl)Quinazolin-4-Amine]",93 °C,200 nM,< 100%
"c1ccc2c(NCC(c3ccncc3)c3ccncc3)nc(-c3ccc4[nH]ccc4c3)nc2c1 [compound 173, N-(2,2-Di(pyridin-4-yl)Ethyl)-2-(1H-Indol-5-yl)Quinazolin-4-Amine]",201 to 202 °C,140 ± 30 nM,80 ± 3%
"c1ccc(CC(Nc2nc(-c3ccc4nccn4c3)nc3ccccc23)c2ccccc2)cc1 (stereo not shown) [compound 165, N-(1,2-Diphenylethyl)-2-(Imidazo[1,2-A]pyridin-6-yl)Quinazolin-4-Amine]",203 to 204 °C,14 ± 2 nM,78 ± 2%
"Cc1cc2nccn2cc1-c1nc(NCCc2ccccn2)c2ccccc2n1 [compound 183, (7-Methylimidazo[1,2-A]Pyridin-6-yl)-N-(2-(Pyridin-2-yl)Ethyl)Quinazolin-4-Amine]",224 to 228 °C,912 ± 195 nM,77 ± 4%
"c1ccc(C(CNc2nc(N3CCc4c([nH]c5ccccc45)C3)nc3ccccc23)c2ccccc2)cc1 [compound 190, 2-(3,4-Dihydro-1H-Pyrido[3,4-B]Indol-2(9H)-yl)-N-(2,2-Diphenylethyl)Quinazolin-4-Amine]",185 to 187 °C,6.9 ± 2 nM,80 ± 3%
"c1ccc(C(CCNc2nc(-c3cccs3)nc3ccccc23)c2ccccc2)cc1 [compound 7, N-(3,3-Diphenylpropyl)-2-(thiophen-2-yl)quinazolin-4-amine]",152 to 155 °C,910 nM,100%
"CS(=O)(=O)n1ccc2cc(-c3nc(NCC(c4ccccc4)c4ccccc4)c4ccccc4n3)ccc21 [compound 154, N-(2,2-Diphenylethyl)-2-(1-(Methylsulfonyl)-1H-Indol-5-yl)Quinazolin-4-Amine]",144 to 146 °C,56 ± 13 nM,73 ± 3%
"c1ccc(CCC(Nc2nc(-c3ccc4nccn4c3)nc3ccccc23)c2ccccc2)cc1 (stereo not shown) [compound 166, N-(1,3-Diphenylpropyl)-2-(Imidazo[1,2-A]Pyridin-6-yl)Quinazolin-4-Amine]",190 to 192 °C,42 ± 7 nM,68 ± 2%
"Cn1cnc2ccc(-c3nc(NCC(c4ccccc4)c4ccccc4)c4ccccc4n3)cc21 [compound 64, N-(2,2-Diphenylethyl)-2-(1-Methyl-1H-Benzo [D]Imidazol-6-yl)Quinazolin-4-Amine]",248 °C,19 ± 3 nM,75 ± 2%
"c1ccc(C(CNc2nc(-c3cccc4ncccc34)nc3ccccc23)c2ccccc2)cc1 [compound 49, N-(2,2-Diphenylethyl)-2-(Quinolin-5-yl)Quinazolin-4-Amine]",207 °C,130 ± 16 nM,73 ± 2%
"COC(CNc1nc(-c2cn3ccnc3cc2C)nc2ccccc12)c1ccccc1 (stereo not shown) [compound 187, N-(2-Methoxy-2-phenylethyl)-2-(7-methylimidazo[1,2-a]pyridin-6-yl)quinazolin-4-amine]",215 to 218 °C,5.7 ± 1.6 nM,74 ± 3%
"O=C(Nc1nc(-c2ccc3nccn3c2)nc2ccccc12)C(c1ccccc1)c1ccccc1 [compound 144, N-(2-(Imidazo[1,2-A]Pyridin-6-yl)Quinazolin-4-yl)-2,2-Diphenylacetamide]",218 to 220 °C,160 ± 28 nM,61 ± 2%
"c1ccc(C(CNc2nc(-c3ccsc3)nc3ccccc23)c2ccccc2)cc1 [compound 10, N-(2,2-Diphenylethyl)-2-(thiophen-3-yl)quinazolin-4-amine]",152 to 155 °C,250 nM,< 100%
"O=S(=O)(c1ccccc1)n1ccc2cc(-c3nc(NCC(c4ccccc4)c4ccccc4)c4ccccc4n3)ccc21 [compound 36, N-(2,2-Diphenylethyl)-2-(1-(Phenylsulfonyl)-1H-Indol-5-yl)Quinazolin-4-Amine]",203 °C,,
"Clc1cccc(C(CNc2nc(-c3cccnc3)nc3ccccc23)c2ccccc2)n1 (stereo not shown) [compound 53, N-(2-(6-Chloropyridin-2-yl)-2-Phenylethyl)-2-(Pyridin-3-yl)Quinazolin-4-Amine]",83 °C,,
"c1ccc(C(CNc2nc(-c3ccc4nccn4c3)nc3ccccc23)N2CCOCC2)cc1 (stereo not shown) [compound 122, 2-(Imidazo[1,2-A]Pyridin-6-yl)-N-(2-Morpholino-2-Phenylethyl)Quinazolin-4-Amine]",> 250 °C,,
"c1ccc(C(CCNc2nc(-c3cc4ccccc4s3)nc3ccccc23)c2ccccc2)cc1 [compound 19, N-(3,3-Diphenylpropyl)-2-(Benzo [B]Thiophen-2-yl)Quinazolin-4-Amine]",201 to 203 °C,,
"Nc1ncc(-c2nc(NCC(c3ccccc3)c3ncccn3)c3ccccc3n2)cn1 (stereo not shown) [compound 104, 2-(2-Aminopyrimidin-5-yl)-N-(2Phenyl-2-(Pyrimidin-2-yl)Ethyl)Quinazolin-4-Amine]",211 °C,,
"c1ccc(C(Nc2nc(-c3cc4ccccc4s3)nc3ccccc23)c2ccccc2)cc1 [compound 8, N-Benzhydryl-2-(benzo[b]thiophen-2-yl)quinazolin-4-amine]",180 to 182 °C,,
"CN(C)Cc1cnc2ccc(-c3nc(NCC(c4ccccc4)c4ccccc4)c4ccccc4n3)cn12 [compound 112, 2-(3-((Dimethylamino)methyl)Imidazo[1,2-A]pyridin-6-yl)-N-(2,2-Diphenylethyl)Quinazolin-4-Amine]",240 °C,,
